According to US20050031597A1, “Cells and improved method for preserving cells” (priority 2003, published 2005):
Like-named read-outs stand apart in the source and are kept apart here.

How the values were obtained:
erythrocytic cells [1] = experiment: Percent hemolysis of erythrocytic cells during loading or incubation; type: cell-based; settings: for percent hemolysis: 800 mM trehalose, 100 mOsm ADSOL, 6.6 mM K-phosphate
Method: FIG. 9 graphically illustrates % hemolysis of loaded cells as a function of time (hours) of incubation in 300 mOsm PBS pH 7.2. The erythrocytic cells were loaded in 700 mM trehalose in 100 mOsm PBS pH 7.2 at 35° C. for 16 hours. After the loading step, the cells were incubated in 300 mOsm PBS pH 7.2 between 1 and 25 hours. This buffer was used for washing the loaded cells and it was important to determine the stability of the loaded cells when they were suspended in this buffer. Cell stability was assessed by measuring the percent hemolysis over the course of 25 hours. […] Between 7 and 25 hours, there was only a small change in the percent hemolysis (from about 25% to about 30%).
FIG. 10 graphically illustrates time course (incubation time, hours) of hemolysis(%) of trehalose-loaded cells as a function of the composition of the incubation buffer. Erythrocytic cells were loaded in 700 mM trehalose in 100 mOsm PBS pH 7.2 for 16 hours at 35° C. They were washed with 300 mOsm PBS pH 7.2 and were subsequently transferred to storage media with increasing trehalose concentrations (between 100 mM and 300 mM trehalose) added to 100 mOsm PBS pH 7.2. The percent hemolysis was measured over the course of 3 hours. […]
At 23° C., the percent hemolysis increases to 7% during 6 hours of incubation. At 37° C., between 10 and 12% hemolysis is observed during incubation of erythrocytic cells between 6 and 9 hours. […] Such intracellular concentration of trehalose provides high survival of erythrocytic cells after freeze-drying and rehydration, therefore these conditions (incubation in trehalose medium between 6 and 9 hours at 37° C.) can be used for loading erythrocytic cells.

erythrocytic cells [2] = experiment: Hemolysis / survival of freeze-dried and rehydrated erythrocytic cells
Method: Cells were loaded in either 800 mM trehalose, 100 mOsm ADSOL, 6.6 mM Na-phosphate (FIG. 21, data set labeled as 800 mM treh) or in 800 mM trehalose, 100 mOsm ADSOL, 6.6 mM Na-phosphate and 1.2 mg/ml α-crystallin (FIG. 21, data set labeled as +α-crystallin 1.2 mg/ml). Cells were subsequently mixed with freeze-drying buffer with final concentration of 250 mM trehalose, 20 mOsm ADSOL, 15% HES and 2.5% HSA and were freeze-dried. After freeze-drying they were directly rehydrated (no pre-hydration) in 141 mM trehalose, 75 mOsm PBS, 11.25% HES and 1.875% HSA. […] In the third data set of FIG. 21, along with 1.2 mg/ml α-crystallin, there was 0.5 mg/ml α-crystallin added to the rehydration buffer.
Rehydration experiments were performed combining α-crystallin and Zn^2+ ions, and applying 5 min pre-hydration.
The cells were loaded in media with different trehalose concentration (400, 500, 600, 700 and 800 mM trehalose) in 100 mOsm PBS pH 7.2. The cells were freeze-dried in 300 mM trehalose in 100 mOsm PBS, 15% HES and 2.54% HSA and rehydrated in a buffer containing 188 mM trehalose, 15% HES and 2.5% HSA.
Loading buffer comprised 800 mM trehalose in a salt solution of 100 mOsm PBS. The incubation time was 16 hours at a temperature of about 35° C. After the cells were loaded, they were subsequently washed in a washing buffer comprising 300 mM in a salt solution of 100 mOsm PBS. Within 3 hours after washing the loaded cells, the wash loaded cells were freeze-dried in freeze-drying buffer comprising about 300 mM trehalose, about 100 mOsm PBS, about 2.5% by wt. HSA, and about 15% by wt. HES. After the freeze-drying procedure the cells had about 75 mM trehalose, about 25 mOsm PBS, about 0.6% by wt. HSA and about 4.0% by wt. HES left in the cells. The freeze-dried cells were then reconstituted at about 37° C. for about 10 minutes in a rehydration buffer comprising about 188 mM trehalose, about 100 mOsm PBS, about 2.5% by wt.

human erythrocytic cells = experiment: Trehalose uptake by erythrocytic cells (anthrone assay, HPLC); type: cell-based
Method: FIG. 5 graphically illustrates the loading efficiency of trehalose into human erythrocytic cells as a function of external trehalose concentration at respective temperatures of 4° C. and 37° C. Erythrocytic cells were exposed to trehalose for 18 hours at either 4° C. or 37° C. The trehalose concentration in the incubation medium varied between 230 mM and 1000 mM. Each incubation buffer contained trehalose (between 230 mM and 1000 mM) and 100 mOsm PBS pH 7.2. Increase in the trehalose concentration in the loading medium results in an increase in the sugar uptake, reaching about 100 mM cytoplasmic trehalose in erythrocytes incubated in 1000 mM trehalose and 100 mOsm PBS. At 4° C., the uptake was very limited, being about 25 mM. The trehalose intake was measured using anthrone assay and confirmed by high performance liquid chromatography. It is clear that there was substantial loading at 37° C., but not at 4° C. Furthermore, trehalose loading was not significant unless the extracellular cellular trehalose concentration gives a hyperosmotic pressure.
FIG. 7 graphically illustrates trehalose uptake (i.e., intracellular trehalose mM) and hemolysis (i.e., % hemolysis) as a function of incubation temperature (° C.). The incubation temperature was varied between 4° C. and 37° C. […] Between 4° C. and 30° C., the cytoplasmic trehalose was very low (between 1 and 4 mM).
100 mOsm ADSOL contains 24 mM glucose, 0.43 mM adenine, 33.3 mM NaCl and 8.9 mM mannitol. Four different temperatures of incubation were used: 4° C., 23° C., 37° C. and 41° C. […] At 23° C., the uptake was higher than at 4° C. and increased with increase of the time of incubation reaching 22 mM intracellular trehalose. At 37° C., the highest uptake of trehalose by the erythrocytic cells was observed within 16 hours (60 mM). At 41° C., the uptake was slightly higher than that observed at 37° C. within 6 hours.

erythrocytic cells [3] = experiment: Osmotic fragility index of trehalose-loaded erythrocytic cells; type: cell-based
Method: FIG. 6 graphically illustrates the fragility index of erythrocytic cells incubated overnight at respective temperatures of 4° C. and 37° C. in the presence of and as a function of increasing intracellular trehalose concentrations. The osmotic fragility index was generated by the extent of hemolysis as a function of the NaCl concentration. The erythrocytic cells that had been loaded in trehalose solutions (between 250 mM and 1000 mM) in 100 mOsm PBS were suspended in increasing concentrations of NaCl (between 50 and 600 mOsm NaCl). The percent hemolysis measured after resuspending the loaded cells in NaCl represents the fragility index.

[4] = about 37° C., about nine(9) hours

Structure (SMILES): OC[C@H]1O[C@H](O[C@H]2O[C@H](CO)[C@@H](O)[C@H](O)[C@H]2O)[C@H](O)[C@@H](O)[C@@H]1O [trehalose]
- percent hemolysis (erythrocytic cells [1]; 23° C., 6 hours): 7%
- percent hemolysis (erythrocytic cells [1]; 23° C., nine(9) hours): about 7%
- percent hemolysis (erythrocytic cells [1]; 37° C., nine(9) hours): about 12%
- hemolysis (%) to incubation (hours) hemolysis gradient (erythrocytic cells [1]; about 23° C.): about 0.38
- hemolysis (%) to incubation (hours) hemolysis gradient (erythrocytic cells [1]; [4]): about 0.25
- percent hemolysis of trehalose-loaded cells (erythrocytic cells [1]; loaded in 700 mM trehalose/100 mOsm PBS 35° C. 16 hours, start of incubation in 300 mOsm PBS pH 7.2): about 7%
- percent hemolysis of trehalose-loaded cells (erythrocytic cells [1]; loaded in 700 mM trehalose/100 mOsm PBS, 7 hours in 300 mOsm PBS pH 7.2): about 25%
- percent hemolysis of trehalose-loaded cells (erythrocytic cells [1]; loaded in 700 mM trehalose/100 mOsm PBS, 25 hours in 300 mOsm PBS pH 7.2): about 30%
- percent hemolysis of trehalose-loaded cells (erythrocytic cells [1]; storage medium 300 mM trehalose in 100 mOsm PBS, over the course of 3 hours): about 4%
- biconcave shape and cell integrity of rehydrated cells (erythrocytic cells [2]; 60 mM cytoplasmic trehalose, freeze-dried and rehydrated (FIG. 14)): well preserved
- cells lysed after rehydration (erythrocytic cells [2]; protocol of Example 12: loaded 800 mM trehalose/100 mOsm PBS, freeze-dried and rehydrated with trehalose, PBS, HSA, HES): less than 5%
- hemolysis at 100000 µM (erythrocytic cells [2]; read-out: % hemolysis of rehydrated cells): < 10%
- hemolysis at 800000 µM (erythrocytic cells [2]; read-out: hemolysis after freeze-drying and direct rehydration): 63%
- hemolysis at 800000 µM (erythrocytic cells [2]; read-out: percent hemolysis after freeze-drying and direct rehydration): 68%
- intracellular trehalose (human erythrocytic cells; 800 mM trehalose, 100 mOsm ADSOL, 6.6 mM K-phosphate, 4° C., 16 hours): 10 mM
- intracellular trehalose (human erythrocytic cells; 800 mM trehalose, 100 mOsm ADSOL, 6.6 mM K-phosphate, 23° C.): 22 mM
- intracellular trehalose (human erythrocytic cells; 800 mM trehalose, 100 mOsm ADSOL, 6.6 mM K-phosphate, 37° C., within 16 hours): 60 mM
- cytoplasmic trehalose (human erythrocytic cells; 800 mM trehalose, 100 mOsm ADSOL, 6.6 mM K-phosphate, nine(9) hours at 4° C.): about 10 mM
- cytoplasmic trehalose (human erythrocytic cells; 800 mM trehalose, 100 mOsm ADSOL, 6.6 mM K-phosphate, nine(9) hours at 23° C.): about 22 mM
- cytoplasmic trehalose (human erythrocytic cells; 800 mM trehalose, 100 mOsm ADSOL, 6.6 mM K-phosphate, nine(9) hours at 37° C.): about 60 mM
- cytoplasmic trehalose (human erythrocytic cells; 6 hours in 800 mM trehalose in 100 mOsm PBS pH 7.2, 37° C.): up to 35 mM
- cytoplasmic trehalose uptake (human erythrocytic cells; 18 hours, 4° C.): about 25 mM
- cytoplasmic trehalose (human erythrocytic cells; 18 hours, 37° C., 1000 mM trehalose and 100 mOsm PBS): about 100 mM
- trehalose (mM) to incubation (hours) loading gradient (human erythrocytic cells; about 23° C.): about 0.75
- trehalose (mM) to incubation (hours) loading gradient (human erythrocytic cells; [4]): about 1.25
- intracellular trehalose (human erythrocytic cells; loaded in 400 mM trehalose in 100 mOsm PBS at 35° C. for 16 hours): 3 mM
- intracellular trehalose (human erythrocytic cells; loaded in 800 mM trehalose in 100 mOsm PBS at 35° C. for 16 hours): 60 mM
- trehalose left in the cells after freeze-drying (human erythrocytic cells; loaded in 800 mM trehalose/100 mOsm PBS 16 hours about 35° C., washed, freeze-dried): about 75 mM
- osmotic fragility (erythrocytic cells [3]; 1000 mM trehalose in 100 mOsm PBS at 37° C.): unstable
- osmotic fragility (erythrocytic cells [3]; trehalose media between 250 mM and 800 mM in 100 mOsm PBS, 37° C. and 4° C.): stable osmotically
